Measured values from patent US10655105B2, “Method for proliferation of pancreatic progenitor cells” (Takeda Pharmaceutical Company Limited, priority 2014, dated 2020).

Tests used:
[1] = tested on: 297L1 cell-derived pancreatic progenitor cells (passage number: 7); assay: Differentiation induction of insulin-producing cells from proliferated pancreatic progenitor cells, NKX6.1/INSULIN immunofluorescence staining; format: cell-based, human; details: cultured 9 days in IMEM-option Zn++ medium with 1% B-27; FIG. 9
Description: Study was made on whether the proliferated and repetitively passaged pancreatic progenitor cells would have the ability to differentiate into INSULIN-producing cells. The cells used were 297L1 cell-derived pancreatic progenitor cells (passage number: 7). The pancreatic progenitor cells brought to a single cell state using Accutase were inoculated at 6×10^4 cells/well to a 96-well plate coated with Matrigel. The culture solution used was IMEM-option Zn^++ medium (containing 1% B-27®) supplemented with XAV939 (1 μM), Y27632 (10 μM), and bFGF (50 ng/ml). The cells were cultured for 2 days to render the cell density confluent. Then, the cells were washed with IMEM-option Zn^++ medium and then cultured for 9 days using IMEM-option Zn^++ medium (containing 1% B-27®) supplemented with ALKS inhibitor II. […] 4% PFA was added to the cells thus cultured, and the cells were fixed at room temperature for 30 minutes. The cells were further reacted with an anti-NKX6.1 antibody and an anti-INSULIN antibody (DAKO, A0564) as primary antibodies and further with an Alexa 488-labeled secondary antibody or an Alexa 568-labeled secondary antibody as a secondary antibody, sequentially, and then observed under a fluorescence microscope.

[2] = tested on: 297L1 cell-derived pancreatic progenitor cells (passage number: 7); details: Stem Cell Research 2012, 8, 274-284; cited from earlier work
[3] = tested on: PDX1-positive cells differentiation-induced from human iPS cell line 253G1; assay: Induction of pancreatic progenitor cells from PDX1-positive cells (253G1 iPS-derived), anti-PDX1/anti-NKX6.1 immunofluorescence staining; format: cell-based; details: cultured 7 days, IMEM-option Zn++ medium with 1% B-27; XAV939 1 μM and/or bFGF 100 ng/ml; FIG. 1
Protocol: The PDX1-positive cells differentiation-induced on a Matrigel-coated dish according to Reference Example 1 were washed with IMEM-option Zn^++ medium and then further cultured for 7 days in IMEM-option Zn^++ medium (containing 1% B-27®) supplemented with XAV939 (1 μM) and/or bFGF (100 ng/ml) (PeproTech, Inc.).
In order to examine the expression of PDX1 and NKX6.1 proteins in the cells thus cultured, immunofluorescence staining was carried out using an anti-PDX1 antibody and an anti-NKX6.1 antibody. […] Then, the cells were reacted with an anti-PDX1 antibody (AF2419, R&D Systems, Inc.) and an anti-NKX6.1 antibody (55F55A12-c, Developmental Studies Hybridoma Bank) as primary antibodies and further with an Alexa 488-labeled secondary antibody or an Alexa 568-labeled secondary antibody (both from Life Technologies Corp.) as a secondary antibody, sequentially, and then observed under a fluorescence microscope.
The PDX1-positive cells differentiation-induced on a Matrigel-coated dish according to Reference Example 1 were washed with IMEM-option Zn^++ medium. […] The cells thus cultured were subjected to the immunofluorescence staining described in Example 1 and observed under a fluorescence microscope.

Compound | appearance of INSULIN-positive cells [1] | induction of INSULIN-positive cells [2] | cells expressing PDX1 and NKX6.1 (immunofluorescence staining) [3]
Cc1cccc(-c2[nH]ncc2-c2ccc3ncccc3n2)n1 [ALKS inhibitor II] | INSULIN-positive cells appeared | known to induce INSULIN-positive cells | –
O=c1[nH]c(-c2ccc(C(F)(F)F)cc2)nc2c1CSCC2 [XAV939, 2-(4-trifluoromethylphenyl)-7,8-dihydro-5H-thiopyrano[4,3-d]pyrimidin-4(3H)-one] | – | – | cells coexpressing PDX1 and NKX6.1 were few in number
bFGF: FGF signal transduction activator, bFGF (FGF2) | – | – | cells coexpressing PDX1 and NKX6.1 were few in number
